Reference: the Kinase Knowledgebase extract (Sharma et al. 2016)

What follows are compounds tested against MAPK14 (human) (UniProt Q16539) (assay: Inhibition of MAPK14 Kinase Activity).
Chain of MAPK14 (human) (Q16539 whole entry, looked up): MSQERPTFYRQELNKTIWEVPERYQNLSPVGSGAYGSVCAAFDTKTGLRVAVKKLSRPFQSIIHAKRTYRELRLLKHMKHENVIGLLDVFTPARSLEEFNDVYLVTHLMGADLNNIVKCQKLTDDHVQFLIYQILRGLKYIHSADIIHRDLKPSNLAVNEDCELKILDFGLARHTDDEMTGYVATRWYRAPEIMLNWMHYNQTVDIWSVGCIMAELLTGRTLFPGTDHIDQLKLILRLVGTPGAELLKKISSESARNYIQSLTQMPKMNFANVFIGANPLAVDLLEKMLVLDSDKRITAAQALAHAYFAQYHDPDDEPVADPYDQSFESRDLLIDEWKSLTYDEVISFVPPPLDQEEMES

Row | IC50 | SMILES
1 | < 10 µM | Cc1cc(F)ccc1-c1nc(NC[C@H](C)O)nc2c1ccc(=O)n2-c1ccccc1F
2 | < 10 µM | CSc1nc(-c2ccccc2F)c2ccc(=O)n(-c3ccccc3Cl)c2n1
3 | < 10 µM | COc1nc(-c2ccccc2F)c2ccc(=O)n(-c3c(F)cccc3F)c2n1
4 | < 10 µM | Cc1cc(F)ccc1-c1nc(O)nc2c1ccc(=O)n2-c1c(F)cccc1F
5 | < 10 µM | O=c1ccc2c(-c3ccccc3Cl)nc(OCCO)nc2n1-c1ccccc1Cl
6 | < 10 µM | Cc1cc(F)ccc1-c1nc(NC2CCOC2)nc2c1ccc(=O)n2-c1c(F)cccc1F (configuration not stated)
7 | < 10 µM | Cc1cc(F)ccc1-c1nc(NCC(=O)N(C)C)nc2c1ccc(=O)n2-c1c(F)cccc1F
8 | < 10 µM | Cc1cc(F)ccc1-c1nc(NC2CCOCC2)nc2c1ccc(=O)n2-c1ccccc1C
9 | < 10 µM | CSc1nc(-c2ccc(F)cc2C)c2ccc(=O)n(-c3ccccc3C)c2n1
10 | < 10 µM | CS(=O)(=O)Nc1nc(-c2ccccc2F)c2ccc(=O)n(-c3ccccc3F)c2n1
11 | < 10 µM | O=c1ccc2c(-c3ccccc3Cl)nc(NC(CO)CO)nc2n1-c1ccccc1Cl
12 | < 10 µM | CSc1nc(-c2ccccc2Cl)c2ccc(=O)n(-c3ccccc3Cl)c2n1
13 | < 10 µM | Cc1cc(F)ccc1-c1nc(NCC(=O)NC2CC2)nc2c1ccc(=O)n2-c1c(F)cccc1F
14 | < 10 µM | Cc1cc(F)ccc1-c1nc(NC(C)(C)CO)nc2c1ccc(=O)n2-c1ccccc1F
15 | < 10 µM | Cc1cc(F)ccc1-c1nc(O)nc2c1ccc(=O)n2-c1ccccc1F
16 | < 10 µM | Cc1cc(F)ccc1-c1nc(N[C@H]2CCCC[C@@H]2O)nc2c1ccc(=O)n2-c1c(F)cccc1F
17 | < 10 µM | Cc1cc(F)ccc1-c1nc(NC(CO)CO)nc2c1ccc(=O)n2-c1c(C)cccc1C
18 | < 10 µM | CSc1nc(-c2ccc(F)cc2C)c2ccc(=O)n(-c3ccccc3F)c2n1
19 | < 10 µM | Cc1cc(F)ccc1-c1nc(Nc2ccnc(=O)[nH]2)nc2c1ccc(=O)n2-c1c(F)cccc1F
20 | < 10 µM | CSc1nc(-c2ccccc2F)c2ccc(=O)n(C)c2n1
21 | < 10 µM | Cc1cc(F)ccc1-c1nc(NC(C)(CO)CO)nc2c1ccc(=O)n2-c1ccccc1C
22 | < 10 µM | COC(=O)CNc1nc(-c2ccc(F)cc2C)c2ccc(=O)n(-c3c(F)cccc3F)c2n1
23 | < 10 µM | COCCNc1nc(-c2ccc(F)cc2C)c2ccc(=O)n(-c3c(F)cccc3F)c2n1
24 | < 10 µM | Cc1cc(F)ccc1-c1nc(S(C)(=O)=O)nc2c1ccc(=O)n2-c1ccccc1C

Row | IC50 | SMILES
25 | < 10 µM | Cc1cc(F)ccc1-c1nc(N[C@@H](C)CO)nc2c1ccc(=O)n2-c1ccccc1F
26 | < 10 µM | CCOC(=O)CNc1nc(-c2ccccc2Cl)c2ccc(=O)n(C(CC)CC)c2n1
27 | < 10 µM | Cc1cc(F)ccc1-c1nc(NCCNC(=O)CN)nc2c1ccc(=O)n2-c1c(F)cccc1F
28 | < 10 µM | Cc1cc(F)ccc1-c1nc(OCCN(C)S(C)(=O)=O)nc2c1ccc(=O)n2-c1c(F)cccc1F
29 | < 10 µM | CC(C)n1c(=O)ccc2c(-c3ccccc3F)nc(NS(C)(=O)=O)nc21
30 | < 10 µM | Cc1cc(F)ccc1-c1nc(Nc2nc[nH]n2)nc2c1ccc(=O)n2-c1c(F)cccc1F
31 | < 10 µM | Cc1cc(F)ccc1-c1nc(NCCNC(=O)c2ccccc2)nc2c1ccc(=O)n2-c1c(F)cccc1F
32 | < 10 µM | Cc1cc(F)ccc1-c1nc(NC[C@H](C)O)nc2c1ccc(=O)n2-c1ccccc1C
33 | < 10 µM | Cc1cc(F)ccc1-c1nc(NCCNS(C)(=O)=O)nc2c1ccc(=O)n2-c1c(F)cccc1F
34 | < 10 µM | CCNC(=O)CNc1nc(-c2ccc(F)cc2C)c2ccc(=O)n(-c3c(F)cccc3F)c2n1
35 | < 10 µM | Cc1cc(F)ccc1-c1nc(N[C@H]2CCC[C@@H]2O)nc2c1ccc(=O)n2-c1c(F)cccc1F
36 | < 10 µM | Cc1cc(F)ccc1-c1nc(NCC(F)(F)F)nc2c1ccc(=O)n2-c1ccccc1C
37 | < 10 µM | Cc1cc(F)ccc1-c1nc(N(C)CCO)nc2c1ccc(=O)n2-c1c(F)cccc1F
38 | < 10 µM | COc1nc(-c2ccc(F)cc2C)c2ccc(=O)n(-c3c(F)cccc3F)c2n1
39 | < 10 µM | Cc1cc(F)ccc1-c1nc(OCC(CO)CO)nc2c1ccc(=O)n2-c1c(F)cccc1F
40 | < 10 µM | Cc1cc(F)ccc1-c1nc(NCC(=O)N2CCNC(=O)C2)nc2c1ccc(=O)n2-c1c(F)cccc1F
41 | < 10 µM | Cc1cc(F)ccc1-c1nc(N[C@@H](C)CO)nc2c1ccc(=O)n2-c1c(F)cccc1F
42 | < 10 µM | CCN(CC)CCNc1nc(-c2ccccc2)c2ccc(=O)n(-c3ccccc3)c2n1
43 | < 10 µM | CC(C)n1c(=O)ccc2c(-c3ccccc3F)nc(NC(CO)CO)nc21
44 | < 10 µM | CCC(CC)n1c(=O)ccc2c(-c3ccccc3Cl)nc(N[C@H](C)CO)nc21
45 | < 10 µM | Cc1cc(F)ccc1-c1nc(NCCNC(=O)OC(C)(C)C)nc2c1ccc(=O)n2-c1c(F)cccc1F
46 | < 10 µM | CSc1nc(-c2ccc(F)cc2C)c2ccc(=O)n(C3CCCCC3)c2n1
47 | < 10 µM | CCC(CC)n1c(=O)ccc2c(-c3ccccc3Cl)nc(NC(CO)CO)nc21
48 | < 10 µM | CCC(CC)n1c(=O)ccc2c(-c3ccccc3Cl)nc(NCCN)nc21

Row | IC50 | SMILES
49 | < 10 µM | Cc1cc(F)ccc1-c1nc(NCc2ncc[nH]2)nc2c1ccc(=O)n2-c1c(F)cccc1F
50 | < 10 µM | Cc1cc(F)ccc1-c1nc(NC(C)(CO)CO)nc2c1ccc(=O)n2-c1ccccc1F
51 | < 10 µM | Cc1cc(F)ccc1-c1nc(N(C)S(C)(=O)=O)nc2c1ccc(=O)n2C(C)C
52 | < 10 µM | Cc1cc(F)ccc1-c1nc(Nc2c[nH]c(=O)[nH]c2=O)nc2c1ccc(=O)n2-c1c(F)cccc1F
53 | < 10 µM | Cc1cc(F)ccc1-c1nc(NC[C@H](C)O)nc2c1ccc(=O)n2-c1c(F)cccc1F
54 | < 10 µM | Cc1cc(F)ccc1-c1nc(NCCc2noc(=O)[nH]2)nc2c1ccc(=O)n2-c1c(F)cccc1F
55 | < 10 µM | CCC(C)n1c(=O)ccc2c(-c3ccc(F)cc3C)nc(NC(CO)CO)nc21 (configuration not stated)
56 | < 10 µM | CSc1nc(-c2ccc(F)cc2C)c2ccc(=O)n(-c3c(F)cccc3F)c2n1
57 | < 10 µM | CN(C)CCNc1nc(-c2ccccc2Cl)c2ccc(=O)n(-c3ccccc3Cl)c2n1
58 | < 10 µM | Cc1cc(F)ccc1-c1nc(NCC(C)(C)O)nc2c1ccc(=O)n2C1CCCCC1
59 | < 10 µM | CSc1nc(-c2ccc(F)cc2C)c2c(n1)N(c1c(F)cccc1F)C(=O)CC2
60 | < 10 µM | CCC(=O)NCCNc1nc(-c2ccc(F)cc2C)c2ccc(=O)n(-c3c(F)cccc3F)c2n1
61 | < 10 µM | COCCNC(=O)CNc1nc(-c2ccc(F)cc2C)c2ccc(=O)n(-c3c(F)cccc3F)c2n1
62 | < 10 µM | Cc1cc(F)ccc1-c1nc(N(C(=O)C2CC2)C(=O)C2CC2)nc2c1ccc(=O)n2-c1c(F)cccc1F
63 | < 10 µM | CCNc1nc(-c2ccc(F)cc2C)c2ccc(=O)n(-c3ccccc3F)c2n1
64 | < 10 µM | Cc1cc(F)ccc1-c1nc(NC[C@@H](C)O)nc2c1ccc(=O)n2-c1ccccc1C
65 | < 10 µM | CCn1c(=O)ccc2c(-c3ccccc3F)nc(SC)nc21
66 | < 10 µM | Cc1cc(F)ccc1-c1nc(NCCNC(=O)CNC(=O)OC(C)(C)C)nc2c1ccc(=O)n2-c1c(F)cccc1F
67 | < 10 µM | Cc1cc(F)ccc1-c1nc(NCCNC(=O)Nc2ccccc2)nc2c1ccc(=O)n2-c1c(F)cccc1F
68 | < 10 µM | CCC(C)n1c(=O)ccc2c(-c3ccccc3F)nc(SC)nc21 (configuration not stated)
69 | < 10 µM | Cc1cc(F)ccc1-c1nc(NCCN)nc2c1ccc(=O)n2-c1c(F)cccc1F
70 | < 10 µM | CCC(CC)n1c(=O)ccc2c(-c3ccccc3Cl)nc(NC3CCN(C)CC3)nc21
71 | < 10 µM | CNC(=O)NCCNc1nc(-c2ccc(F)cc2C)c2ccc(=O)n(-c3c(F)cccc3F)c2n1
72 | < 10 µM | Cc1cc(F)ccc1-c1nc(NCC(N)=O)nc2c1ccc(=O)n2-c1c(F)cccc1F

Row | IC50 | SMILES
73 | < 10 µM | Cc1cc(F)ccc1-c1nc(NC2CCOCC2)nc2c1ccc(=O)n2-c1ccccc1F
74 | < 10 µM | Cc1cc(F)ccc1-c1nc(NS(C)(=O)=O)nc2c1ccc(=O)n2-c1c(F)cccc1F
75 | < 10 µM | Cc1cc(F)ccc1-c1nc(NCC(=O)NCCO)nc2c1ccc(=O)n2-c1c(F)cccc1F
76 | < 10 µM | Cc1cc(F)ccc1-c1nc(NC[C@@H](C)O)nc2c1ccc(=O)n2C1CCCCC1
77 | < 10 µM | Cc1cc(F)ccc1-c1nc(NC(C)(CO)CO)nc2c1ccc(=O)n2-c1c(F)cccc1F
78 | < 10 µM | Cc1cc(F)ccc1-c1nc(NC(CO)CO)nc2c1ccc(=O)n2-c1ccccc1F
79 | < 10 µM | CSc1nc(-c2ccccc2F)c2ccc(=O)n(-c3c(F)cccc3F)c2n1
80 | < 10 µM | CCNC(=O)NCCNc1nc(-c2ccc(F)cc2C)c2ccc(=O)n(-c3c(F)cccc3F)c2n1
81 | < 10 µM | CSc1nc(-c2ccc(F)cc2C)c2ccc(=O)n(CC3CC3)c2n1
82 | < 10 µM | CSc1nc(-c2ccc(F)cc2C)c2ccc(=O)n(-c3c(C)cccc3C)c2n1
83 | < 10 µM | Cc1cc(F)ccc1-c1nc(NCC(=O)N2CC(O)C2)nc2c1ccc(=O)n2-c1c(F)cccc1F
84 | < 10 µM | Cc1cc(F)ccc1-c1nc(NCCNC(=O)Nc2cccc(F)c2)nc2c1ccc(=O)n2-c1c(F)cccc1F
85 | < 10 µM | CSc1nc(-c2ccc(F)cc2C)c2ccc(=O)n(C3CC3)c2n1
86 | < 10 µM | Cc1cc(F)ccc1-c1nc(NCC2CCS(=O)(=O)C2)nc2c1ccc(=O)n2-c1c(F)cccc1F (configuration not stated)
87 | < 10 µM | Cc1cc(F)ccc1-c1nc(NCC(F)(F)F)nc2c1ccc(=O)n2-c1ccccc1F
88 | < 10 µM | Cc1cc(F)ccc1-c1nc(NCCO)nc2c1ccc(=O)n2-c1c(C)cccc1C
89 | < 10 µM | CCN(CC)CCNc1nc(-c2ccc(F)cc2C)c2ccc(=O)n(-c3c(F)cccc3F)c2n1
90 | < 10 µM | Cc1cc(F)ccc1-c1nc(NC2CCCCC2)nc2c1ccc(=O)n2-c1ccccc1C
91 | < 10 µM | CCN(CC)CCNc1nc(-c2ccccc2F)c2ccc(=O)n(-c3ccccc3Cl)c2n1
92 | < 10 µM | Cc1cc(F)ccc1-c1nc(S(C)(=O)=O)nc2c1ccc(=O)n2-c1c(C)cccc1C
93 | < 10 µM | NCCNc1nc(-c2ccccc2Cl)c2ccc(=O)n(-c3ccccc3Cl)c2n1
94 | < 10 µM | CC(=O)NCCOc1nc(-c2ccc(F)cc2C)c2ccc(=O)n(-c3c(F)cccc3F)c2n1
95 | < 10 µM | Cc1cc(F)ccc1-c1nc(NCC(F)(F)F)nc2c1ccc(=O)n2-c1c(F)cccc1F
96 | < 10 µM | Cc1cc(F)ccc1-c1nc(NCCNC(=O)NC2CCCCC2)nc2c1ccc(=O)n2-c1c(F)cccc1F

Row | SMILES | IC50
97 | Cc1cc(F)ccc1-c1nc(NCCCl)nc2c1ccc(=O)n2-c1c(F)cccc1F | < 10 µM
